Data on six molecules can be found in paper PMC11946255, “Extraction of Cannabinoids and Terpenes from Hemp Flowers and Leaves (Cannabis sativa L., Futura 75): Chemical Profiling and Evaluation of Anticancer Properties” (Molecules, 2025).

Converted amounts (≈) assume the structure as drawn.

Assay [1] has as its system breast cancer MCF-7 (ER+). Nature of the assay: Antiproliferative activity, SRB assay, MCF-7. In kind it is cell-based, human. The following applies: for IC50 MCF-7 / IC50: 72 h incubation, SRB, mean ± SD; for Calculated Selectivity Index SI MCF-7: SI = IC50 MCF-10A / IC50 MCF-7; for IC50: Homo sapiens, MCF7.
For the next assay, the system named is lung carcinoma A549. Nature of the assay: Antiproliferative activity, SRB assay, A549. The class given is cell-based, human. The following applies: for IC50 A549 / IC50: 72 h incubation, SRB, mean ± SD; for Calculated Selectivity Index SI A549: SI = IC50 MCF-10A / IC50 A549; for IC50: Homo sapiens, A549.
Assay [2] deals with normal breast epithelial MCF-10A cells. Nature of the assay: Cytotoxicity, SRB assay, MCF-10A. In kind it is cell-based, human. The following applies: 72 h incubation, non-tumorigenic cells, mean ± SD; for IC50: Homo sapiens, MCF-10A. On the procedure:
(§1) Two extracts, Futu 1 and Futu 2, were selected for the study of their antiproliferative activity against six human cancer cell lines: biphenotypic B myelomonocytic leukemia (MV4-11), lung carcinoma (A549), colon adenocarcinoma (HT-29), gastric adenocarcinoma (AGS), and breast carcinomas (MCF-7 (ER+) and MDA-MB-468 (TNBC)). Additionally, their cytotoxicity and potential safety for use were assessed on normal human breast epithelial cells (MCF-10A). This study aimed to determine the effectiveness of these extracts in inhibiting cancer cell growth while ensuring minimal toxicity to normal cells. The first extract, Futu 1, contained the highest amount of cannabinoid fraction (51.57%) among all tested extracts, and the terpene fraction consisted of 9.8% monoterpenes and 90.2% of sesquiterpenes. Futu 1 was obtained using pressurized extraction with the following process parameters: a pressure of 1 bar, a solvent mixture of hexane/ethanol (7:3, v/v), and a temperature of 25 °C. The second extract, Futu 2, was selected for its higher monoterpene content (19.6%) in the terpene fraction in comparison to sesquiterpenes (80.4%) and its 49.49% content of cannabinoids. This extract was also obtained via pressurized extraction, using a pressure of 1 bar, a solvent mixture of hexane/isopropanol (7:3, v/v), and a temperature of −55 °C. After 72 h of incubation of cancer and normal cells with cannabinoids and the extracts Futu 1 or Futu 2, antiproliferative activity was assessed using the MTT assay (for MV4-11) or the SRB assay. The percentage of cell growth inhibition was calculated and IC50 values were determined (Table 3).
(§2) Human cell lines: biphenotypic B myelomonocytic leukemia MV4-11, gastric adenocarcinoma AGS, colon adenocarcinoma HT-29, and normal breast MCF-10A cells were obtained from American Type Culture Collection (ATCC) in the United States; lung carcinoma A549 and breast cancer MCF-7 were obtained from European Collection of Authenticated Cell Cultures (ECACC). Human breast cancer MDA-MB-468 cells were obtained from Leibniz Institute DSMZ (German Collection of Microorganisms and Cell Cultures). All the cell lines were maintained at the Hirszfeld Institute of Immunology and Experimental Therapy, PAS, Wroclaw, Poland. MV4-11 and MDA-MB-468 cells were cultured in RPMI 1640 medium (IIET PAS, Wrocław, Poland) with 1.0 mM sodium pyruvate (only MV4-11) and 10% (MV4-11) or 20% (MDA-MB-468) fetal bovine serum (FBS) (all from Merck, Darmstadt, Germany). A549, HT-29, and AGS cells were cultured in RPMI 1640 + Opti-MEM (1:1) medium (IIET PAS, Wrocław, Poland, and Gibco, London, UK) supplemented with 5% FBS (Merck, Darmstadt, Germany) and 1.0 mM sodium pyruvate (only HT-29). The MCF-7 cells were cultured in Eagle medium (IIET PAS, Wrocław, Poland) supplemented with 8 microg/mL of insulin and 1% MEM NON-Essential amino acid (all Merck, Darmstadt, Germany). Normal breast epithelial MCF-10A cells were cultured in the HAM’S F-12 medium, which was supplemented with 10% Horse Serum (Gibco, London, UK), 20 ng/mL EGFh, 10 µg/mL insulin, and 0.5 µg/mL Hydrocortisone and 0.05 mg/mL Cholera Toxin from Vibrio cholerae were from Merck, Darmstadt, Germany.
The antiproliferative activity of cannabinoids (in concentrations of 1 mg/mL in methanol) and the plant extracts named Futu1 and Futu2 (the solutions were prepared by dissolving the substance in methanol to a concentration of 50 mg/mL) were tested against 6 cancer cell lines. Their cytotoxicity was also tested against one normal cell line. The tested mixtures of compounds were diluted in a culture medium to reach the final concentrations. Before adding the tested compounds (24 h prior), the cells were plated in 384-well plates (Greiner Bio-One) at a density of 1 × 10^3 (A549), 1.5 × 10^3 (MDA-MB-468, HT-29, MCF-7), or 2 × 10^3 (AGS, MCF-10A) cells per well. The MV4-11 cells were plated in 96-well plates (Corning) at a density of 5 × 10^3 cells per well. […]

The subject of assay [3] is colon adenocarcinoma HT-29. Nature of the assay: Antiproliferative activity, SRB assay, HT-29. The following applies: for IC50 HT-29 / IC50: 72 h incubation, SRB, mean ± SD; for Calculated Selectivity Index SI HT-29: SI = IC50 MCF-10A / IC50 HT-29; for IC50: Homo sapiens, HT-29. The class given is cell-based, human.
The subject of assay [4] is gastric adenocarcinoma AGS. Nature of the assay: Antiproliferative activity, SRB assay, AGS. The following applies: for IC50 AGS / IC50: 72 h incubation, SRB, mean ± SD; for Calculated Selectivity Index SI AGS: SI = IC50 MCF-10A / IC50 AGS; for IC50: Homo sapiens. The class given is cell-based, human.
In assay [5] the test system is biphenotypic B myelomonocytic leukemia MV4-11. Nature of the assay: Antiproliferative activity, MTT assay, MV4-11. In kind it is cell-based, human. The following applies: 2 μg/mL, 72 h, compared to untreated control cells. As to the method: as §1
as §2, with “The MCF-7 cells were cultured in Eagle medium (IIET PAS, Wrocław, Poland) supplemented with 8 microg/mL of insulin and 1% MEM NON-Essential amino acid (all Merck, Darmstadt, Germany). Normal breast epithelial MCF-10A cells were cultured in the HAM’S F-12 medium, which was supplemented with 10% Horse Serum (Gibco, London, UK), 20 ng/mL EGFh, 10 µg/mL insulin, and 0.5 µg/mL Hydrocortisone and 0.05 mg/mL Cholera Toxin from Vibrio cholerae were from Merck, Darmstadt, Germany.” left out

The subject of assay [6] is lung (A549), colon (HT-29), gastric (AGS), and breast (MCF-7, ER+) cancer cell lines. Nature of the assay: Antiproliferative activity, SRB assay, summarised over the cancer cell lines. The class given is cell-based. The following applies: Homo sapiens; 72 h, range across the four cancer cell lines. As to the method: as §1, with “The second extract, Futu 2, was selected for its higher monoterpene content (19.6%) in the terpene fraction in comparison to sesquiterpenes (80.4%) and its 49.49% content of cannabinoids. This extract was also obtained via pressurized extraction, using a pressure of 1 bar, a solvent mixture of hexane/isopropanol (7:3, v/v), and a temperature of −55 °C.” left out, “3). […]” for “3).”

`C=C(C)[C@@H]1CCC(C)=C[C@H]1c1c(O)cc(CCC)cc1O` [CBDV]: in assay [1], the “IC50 MCF-7” value was found to be 8.43 ± 2.05 µg/mL (≈ 29.4 µM) and the “Calculated Selectivity Index SI MCF-7” value is 1.33. In the assay with lung carcinoma A549, the “IC50 A549” value stood at 6.22 ± 2.26 µg/mL (≈ 21.7 µM) and the “Calculated Selectivity Index SI A549” value was 1.81. Moreover, in assay [2], the “IC50 MCF-10A” value was found to be 11.24 ± 0.26 µg/mL (≈ 39.2 µM). Besides, in assay [3], the “IC50 HT-29” value worked out at 3.6 ± 0.4 µg/mL (≈ 12.6 µM) and the “Calculated Selectivity Index SI HT-29” value is 3.12. Besides, in assay [4], the “IC50 AGS” value turned out to be 8.4 ± 1.98 µg/mL (≈ 29.3 µM) and the “Calculated Selectivity Index SI AGS” value is reported as 1.34.

Take `CCCCCc1cc(O)c(C/C=C(\C)CCC=C(C)C)c(O)c1` [CBG, cannabigerol]: the IC50 in assay [1] was determined as 7.43 ± 1.43 µg/mL (≈ 23.5 µM); with lung carcinoma A549 it was 3.71 ± 0.46 µg/mL (≈ 11.7 µM); in assay [2], 10.7 ± 0.71 µg/mL (≈ 33.9 µM); in assay [3] it was 10 ± 1.14 µg/mL (≈ 31.7 µM); in assay [4], 6.11 ± 1.31 µg/mL (≈ 19.3 µM). Besides, the “Calculated Selectivity Index SI MCF-7” value in assay [1] is reported as 1.45. In addition, in the assay on lung carcinoma A549, the “Calculated Selectivity Index SI A549” value was 2.89. Also, the “Calculated Selectivity Index SI HT-29” value in assay [3] was 1.07. The “Calculated Selectivity Index SI AGS” value in assay [4] is recorded as 1.76.

`CCCCCc1cc(O)c2c(c1)OC(C)(C)c1ccc(C)cc1-2` [CBN, cannabinol]: in assay [1], the IC50 is 5.79 ± 1.79 µg/mL (≈ 18.7 µM) and the “Calculated Selectivity Index SI MCF-7” value is 1.87. For the same molecule, in the assay on lung carcinoma A549, the IC50 was found to be 3.3 ± 0.15 µg/mL (≈ 10.6 µM) and the “Calculated Selectivity Index SI A549” value is given as 3.27. In addition, the IC50 in assay [2] was 10.8 ± 0.68 µg/mL (≈ 34.8 µM). In assay [3], the IC50 came out at 6.07 ± 2.11 µg/mL (≈ 19.6 µM) and the “Calculated Selectivity Index SI HT-29” value is reported as 1.78. Moreover, in assay [4], the midpoint of inhibition, the IC50, lay at 6.18 ± 0.98 µg/mL (≈ 19.9 µM) and the “Calculated Selectivity Index SI AGS” value was 1.75. For the same molecule, the “Stimulation of MV4-11 cell growth” value in assay [5] came out at 140%.

On to `C=C(C)[C@@H]1CCC(C)=C[C@H]1c1c(O)cc(CCCCC)cc1O` [CBD, cannabidiol], for which the IC50 in assay [1] is 3.67 ± 0.55 µg/mL (≈ 11.7 µM); in the assay on lung carcinoma A549, 2.87 ± 0.24 µg/mL (≈ 9.13 µM); in assay [6] it was 2.87 to 3.74 µg/mL (≈ 9.13 to 11.9 µM); in assay [2], 10.6 ± 0.63 µg/mL (≈ 33.5 µM); in assay [3], 3.04 ± 0.52 µg/mL (≈ 9.67 µM); in assay [4] it was 3.74 ± 0.28 µg/mL (≈ 11.9 µM). In addition, in assay [1], the “Calculated Selectivity Index SI MCF-7” value is recorded as 2.87. In the assay with lung carcinoma A549, the “Calculated Selectivity Index SI A549” value is 3.68. Also, in assay [3], the “Calculated Selectivity Index SI HT-29” value is on record as 3.47. Moreover, the “Calculated Selectivity Index SI AGS” value in assay [4] was 2.82. Besides, the “Stimulation of MV4-11 cell growth” value in assay [5] amounted to 140%.

Regarding `CCCCCc1cc(O)c2c(c1)OC(C)(CCC=C(C)C)C=C2` (centres unmarked) [CBC, cannabichromene], in assay [1], the IC50 was 7.56 ± 1.52 µg/mL (≈ 24 µM) and the “Calculated Selectivity Index SI MCF-7” value is on record as 1.39. In addition, in the assay with lung carcinoma A549, half-maximal inhibition (IC50) was put at 3.26 ± 0.2 µg/mL (≈ 10.4 µM) and the “Calculated Selectivity Index SI A549” value is 3.23. The molecule also showed an IC50 in assay [2] of 10.5 ± 0.46 µg/mL (≈ 33.5 µM). In addition, in assay [3], the midpoint of inhibition, the IC50, lay at 5.94 ± 1.86 µg/mL (≈ 18.9 µM) and the “Calculated Selectivity Index SI HT-29” value is listed as 1.77. In addition, in assay [4], 5.53 ± 0.88 µg/mL (≈ 17.6 µM) corresponded to half-maximal inhibition (IC50) and the “Calculated Selectivity Index SI AGS” value was 1.9. The “Stimulation of MV4-11 cell growth” value in assay [5] stood at 140%.

With `CCCCCc1cc(O)c2c(c1)OC(C)(C)[C@@H]1CCC(C)=C[C@@H]21` (relative stereo) [THC, (–)-trans-Δ^9-tetrahydrocannabinol], in assay [1], the “IC50 MCF-7” value stood at 8.4 ± 1.26 µg/mL (≈ 26.7 µM) and the “Calculated Selectivity Index SI MCF-7” value is 1.33. Also, in the assay on lung carcinoma A549, the “IC50 A549” value was determined as 3.94 ± 0.44 µg/mL (≈ 12.5 µM) and the “Calculated Selectivity Index SI A549” value was 2.82. In assay [2], the “IC50 MCF-10A” value turned out to be 11.13 ± 0.72 µg/mL (≈ 35.4 µM). In addition, in assay [3], the “IC50 HT-29” value was determined as 3.73 ± 0.59 µg/mL (≈ 11.9 µM) and the “Calculated Selectivity Index SI HT-29” value is 2.98. Besides, in assay [4], the “IC50 AGS” value stood at 6.35 ± 1.35 µg/mL (≈ 20.2 µM) and the “Calculated Selectivity Index SI AGS” value is reported as 1.75. For the same molecule, the “Stimulation of MV4-11 cell growth” value in assay [5] amounted to 180%.

As a reminder, the IC50 is the concentration at which inhibition is half-maximal. Low readings indicate greater potency, high ones weaker potency.
